Reference: paper PMC11061149, “Protein mimetic 2D FAST rescues alpha synuclein aggregation mediated early and post disease Parkinson’s phenotypes” (Nature Communications, 2024)
“And” between values parts separate entries of the source, which are not always exact repeats. Equal values may be shown once.

What was measured:
[1] = test system: NL5901 worms (αS-YFP in body wall muscle cells); assay: Confocal counting of αS-YFP inclusions in NL5901 worms; type: in vivo, C. elegans; conditions: for number of inclusions in NL5901, individual trials: 50 µM ligand; for number of inclusions: 50 μM ligand
Procedure: In NL5901 strain, αS-YFP is expressed in the muscle cells of worms. The aggregates of αS-YFP are visible from day 4 and the maximum number of αS-YFP aggregates are visible round day 8 and day 9. The standard worm conditions were used for the culturing of various worm strains. […] The cultures of OP50 were prepared by incubating 50 mL of LB medium with OP50 18 h at 37 °C and the final OD value was adjusted to 0.5 at 600 nm. The NGM plates were prepared by treating them with 350 µL OP50 and leaving the plates at 20 °C for 3 days. […] The NGM plates (with NGM media) were used for the treatment of different worm strains with ligands. […] The NGM plates treated with ligands were prepared and used within 24 h. We used these plates to treat various disease strains for different assays. This experiment was performed based on previously described protocols with slight modifications[24],[65],[88]. […] On day two, the worms were divided into two batches. […] On day four, the ligand (10–50 µM, stock conc. = 10 mM in DMSO, DMSO from 0.1–0.5%, v/v) was added again to PLATE 3. […] For each condition, six biological replicates were performed and at least 10 technical replicates were used for each biological replicate. […] (n = 6 independent experiments and each n consisted of a minimum of ten technical replicates).

[2] = test system: UA196 worms; assay: Motility assay of UA196 worms; type: in vivo, C. elegans
Procedure: (§1) Briefly, all worm strains were bleached at the same time and the eggs were incubated on PLATE 1. On day two, the worms were divided into two batches. […] The liquid media for PLATE 4 A/B was prepared with 67.28% (v/v) of M9 buffer, 75 μM FUDR, 0.1% of 1 M magnesium sulfate (v/v), 0.1% of 1 M calcium chloride (v/v), 2.5% of 1 M potassium phosphate solution (pH 6, v/v), and 30% (v/v) of OP50 (0.5 OD600nm). […] To test the effect of each ligand on disease worm strains (NL5901 or UA196), there were four conditions were used in PLATE 4 A/B: […] The assay was started on day four using the WMicroTracker ARENA plate reader (Phylumtech, Santa Fe, Argentina) at 20 °C for 1 h per day over a 14-day period at intervals of 24 h. The WMicroTracker ARENA plate reader uses a large array of infrared light microbeams in each well of the plate to detect the interference caused by the movement of the worms. The output by the ARENA plate reader is an average of the overall movement of all worms present in each well, which is denoted as the motility of the worms in each well. […] After collecting the data each day, the PLATE 4 A/B was again placed on the shaker (100 rpm) at 20 °C in the incubator. The PLATE 4 A/B was on the on the shaker (100 rpm) at 20 °C in the incubator the whole duration of the experiment except only when the reading was collected on the WMicroTracker ARENA plate reader for 1 h.

[3] = test system: NL5901 worms; assay: Motility assay of NL5901 worms (WMicroTracker ARENA); type: in vivo, C. elegans; conditions: for Motility of NL5901 worms + NS132: individual trials
Procedure: as §1

[4] = biological target: T1, αS PMCA samples (Homo sapiens, UniProt P37840); assay: Proteinase K digestion of PMCA samples; type: biochemical; conditions: cycle three to cycle five, in the presence of NS132
T1 construct: made in house; host or cells: E. coli BL21(DE3)
Procedure: A Protease K (PK) solution at 50 μg/mL (IBI Scientific, Dubuque, IA) in digestion buffer (10 mM Tris, pH 8.0, 2 mM CaCl2) was diluted (0.1 eq.) into 30 μL of PMCA solution (with or without NS132) and incubated for 30 min at 37 °C. Subsequently, the samples were diluted (1:1, v/v) in SDS Protein Gel Loading Dye 2× (Quality Biological, Gaithersburg, MD) and loaded on Mini-PROTEAN TGX Stain-Free Protein Gel (BioRad, Hercules, CA). The gel was stained using the Fairbanks staining method and imaged using ChemiDoc MP (BioRad, Hercules, CA).

SMILES: Cc1ccc(NC(=O)c2ccc(NC(=O)c3ccc([N+](=O)[O-])c(NCCc4c[nH]c5ccccc45)n3)c(NCC3CCCCC3)n2)c(OCC(=O)O)n1 [NS132]
- number of inclusions in NL5901, individual trials ([1]; Day 8): 3 and 2 and 6 and 5 and 9 and 4 and 7 and 8
- number of inclusions in NL5901, individual trials ([1]; Day 9): 5 and 6 and 7 and 8 and 11 and 10 and 3 and 9 and 4
- number of inclusions ([1]; day eight): ~ 5 inclusions/worm
- number of inclusions ([1]; day nine): ~ 6.6 inclusions/worm
- motility of UA196 worms, in words ([2]; 50 µM ligand (day two and day four), during the aging process): noticeable rescue
- Motility (activity counts) ([2]; UA196+NS132, Day 4, per trial): 206 and 197 and 180 and 188
- Motility (activity counts) ([2]; UA196+NS132, Day 5, per trial): 205 and 178 and 179 and 183
- Motility (activity counts) ([2]; UA196+NS132, Day 6, per trial): 161 and 191 and 157 and 201
- Motility (activity counts) ([2]; UA196+NS132, Day 7, per trial): 139 and 152 and 174 and 165
- Motility (activity counts) ([2]; UA196+NS132, Day 8, per trial): 150 and 125 and 135 and 134
- Motility (activity counts) ([2]; UA196+NS132, Day 9, per trial): 143 and 94 and 105 and 78
- Motility (activity counts) ([2]; UA196+NS132, Day 10, per trial): 97 and 68 and 112
- Motility (activity counts) ([2]; UA196+NS132, Day 13, per trial): 24 and 17 and 22 and 19
- Motility (activity counts) ([2]; UA196+NS132, Day 14, per trial): 19 and 14 and 23
- motility of NL5901 worms, in words ([3]; 50 μM ligand on day two and day four): increase in the motility
- Motility of NL5901 worms + NS132 ([3]; Day 4): 255 and 287 and 207 and 297
- Motility of NL5901 worms + NS132 ([3]; Day 5): 181 and 139 and 108 and 189
- Motility of NL5901 worms + NS132 ([3]; Day 6): 201 and 130 and 176 and 121
- Motility of NL5901 worms + NS132 ([3]; Day 7): 101 and 172 and 160 and 83
- Motility of NL5901 worms + NS132 ([3]; Day 8): 129 and 117 and 94 and 99
- Motility of NL5901 worms + NS132 ([3]; Day 9): 107 and 89 and 145 and 65
- Motility of NL5901 worms + NS132 ([3]; Day 10): 127 and 107 and 105 and 52
- Motility of NL5901 worms + NS132 ([3]; Day 11): 74 and 83 and 88 and 72
- Motility of NL5901 worms + NS132 ([3]; Day 12): 57 and 70 and 69 and 56
- Motility of NL5901 worms + NS132 ([3]; Day 13): 38 and 34 and 42 and 33
- Motility of NL5901 worms + NS132 ([3]; Day 14): 27 and 43 and 19 and 20
- proteinase K (PK) resistance of PMCA samples, in words [4]: completely degraded
